This note sets out measurements from US8921364B2, “Modulators of calcium release-activated calcium channel” (Rhizen Pharmaceuticals SA, priority 2009, dated 2014).

By IC50 is commonly meant the concentration needed to halve the response being measured. For orientation: inhibition means the share of the control response that was lost under treatment.

The structures appear in SMILES notation. Where a name gives a salt, the structure may show the parent alone.

The target of one test is CRAC channels (Homo sapiens (Human), UniProt Q96D31). The test can be described thus: In-vitro CRAC channel inhibition assay in Jurkat cells (thapsigargin-induced calcium influx). It counts as cell-based.
Chain of CRAC channels (Q96D31 whole entry): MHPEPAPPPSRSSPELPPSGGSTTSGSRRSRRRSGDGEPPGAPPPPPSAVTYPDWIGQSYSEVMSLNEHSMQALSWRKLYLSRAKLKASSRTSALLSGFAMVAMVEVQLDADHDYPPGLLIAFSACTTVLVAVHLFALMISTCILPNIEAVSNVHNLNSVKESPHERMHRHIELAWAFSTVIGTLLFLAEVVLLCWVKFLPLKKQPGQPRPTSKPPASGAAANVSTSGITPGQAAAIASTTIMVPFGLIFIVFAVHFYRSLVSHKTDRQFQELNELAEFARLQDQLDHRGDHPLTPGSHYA
Settings: not given
The procedure:
Inhibition of CRAC channels was determined following thapsigargin (Sigma, Cat # T9033) induced endoplasmic calcium release in Jurkat cells. […] Cells were centrifuged and re-suspended in equal volumes ° f Ca^2+ and Mg^2+ free Hanks buffer and Fluo-8 NW dye (ABD Bioquest, Inc., Sunnyvale, Calif.) loading solution at 2×10^5 cells/100 μl/well in 96-well black plate. Plate is incubated at 37° C., 5% CO2 for 30 min followed by further 15 min incubation at room temperature. Test compounds (DMSO stocks diluted in Ca^2+ and Mg^2+ free Hanks buffer) at desired concentrations were added to the wells and incubated for […] Thapsigargin (1 μM final concentration) was added to the wells and incubated for 15 min to inhibit the Sarco-endoplasmic reticulum Ca^2+ ATPase pump thereby depleting endoplasmic calcium and raising cytosolic calcium concentrations. Store-operated calcium entry was initiated by adding extracellular Ca^2+ to a final concentration of 1.8 mM. Fluorescence was monitored over […] on a plate reader (BMG Labtech., Germany) with excitation at 485 nm and an emission wavelength at 520 nm. Data were analyzed using GraphPad Prism. IC50 for each compound was determined based on the percent inhibition of thapsigargin-induced calcium influx into cells.
On to `Cc1oncc1C(=O)Nc1ccc(-n2nc(C3CC3)cc2C2CC2)cc1` [Example 4, N-[4-(3,5-dicyclopropyl-1H-pyrazol-1-yl)phenyl]-5-methylisoxazole-4-carboxamide], for which the 50% inhibitory concentration (IC50) was determined as 256 nM.

The test is the same for the next values; noted with them: Jurkat cells, 1 uM, thapsigargin-induced calcium influx.
With `O=C(Nc1ccc(-n2nc(C3CC3)cc2C2CC2)c(F)c1)c1ccncc1` [Example 35, N-[4-(3,5-dicyclopropyl-1H-pyrazol-1-yl)-3-fluorophenyl]isonicotinamide hydrochloride], the inhibition at 1 µM worked out at 100%.

Still in this test, the particulars now being: Jurkat cells, thapsigargin-induced calcium influx.
In the case of `Cc1nnsc1C(=O)Nc1ccc(-n2nc(C3CC3)cc2C2CC2)cc1` [Example 1, N-[4-(3,5-dicyclopropyl-1H-pyrazol-1-yl)phenyl]-4-methyl-1,2,3-thiadiazole-5-carboxamide], the IC50 was found to be 62.4 nM.

For the compound `Cc1ncsc1C(=O)Nc1ccc(-n2nc(C3CC3)cc2C2CC2)cc1` [Example 2, N-[4-(3,5-dicyclopropyl-1H-pyrazol-1-yl)phenyl]-4-methylthiazole-5-carboxamide], the IC50 is 207 nM.

With `Cc1ccccc1C(=O)Nc1ccc(-n2nc(C3CC3)cc2C2CC2)cc1` [Example 7, N-[4-(3,5-dicyclopropyl-1H-pyrazol-1-yl)phenyl]-2-methylbenzamide], the 50% inhibitory concentration (IC50) was 36.4 nM.

Consider `O=C(Nc1ccc(-n2nc(C3CC3)cc2C2CC2)cc1)c1ccncc1F` [Example 16, N-[4-(3,5-dicyclopropyl-1H-pyrazol-1-yl)phenyl]-3-fluoroisonicotinamide], for which the half-maximal inhibitory concentration (IC50) was 244 nM.

Consider `O=C(Nc1ccc(-n2nc(C3CC3)cc2C2CC2)cc1)c1c(Cl)cncc1Cl` [Example 17, 3,5-dichloro-N-(4-(3,5-dicyclopropyl-1H-pyrazol-1-yl)phenyl)isonicotinamide], for which the half-maximal inhibitory concentration (IC50) turned out to be 130 nM.

As to `O=C(Cc1ccccc1)Nc1ccc(-n2nc(C3CC3)cc2C2CC2)cc1` [Example 19, N-[4-(3,5-dicyclopropyl-1H-pyrazol-1-yl)phenyl]-2-phenylacetamide], the IC50 stood at 457 nM.

In the case of `O=C(Cc1ccccn1)Nc1ccc(-n2nc(C3CC3)cc2C2CC2)cc1` [Example 22, N-[4-(3,5-dicyclopropyl-1H-pyrazol-1-yl)phenyl]-2-(pyridin-2-yl)acetamide hydrochloride], the IC50 amounted to 968 nM.

As for `Cc1nnsc1C(=O)Nc1ccc(-n2nc(C3CC3)cc2C2CC2)c(F)c1` [Example 28, N-[4-(3,5-dicyclopropyl-1H-pyrazol-1-yl)-3-fluorophenyl]-4-methyl-1,2,3-thiadiazole-5-carboxamide], the half-maximal inhibitory concentration (IC50) was found to be 60.3 nM.

As to `O=C(Nc1ccc(-n2nc(C3CC3)cc2C2CC2)c(F)c1)c1c(F)cccc1F` [Example 33, N-[4-(3,5-dicyclopropyl-1H-pyrazol-1-yl)-3-fluorophenyl]-2,6-difluorobenzamide], the half-inhibitory concentration (IC50) was determined as 145 nM.

Turning to `O=C(Nc1ccc(-n2nc(C3CC3)cc2C2CC2)c(F)c1)c1ccncc1` [Example 35, N-[4-(3,5-dicyclopropyl-1H-pyrazol-1-yl)-3-fluorophenyl]isonicotinamide hydrochloride], the concentration for half-maximal inhibition (IC50) was found to be 185 nM.

Take `Cc1ncncc1C(=O)Nc1ccc(-n2nc(C3CC3)cc2C2CC2)c(F)c1` [Example 36, N-[4-(3,5-dicyclopropyl-1H-pyrazol-1-yl)-3-fluorophenyl]-4-methylpyrimidine-5-carboxamide]: the 50% inhibitory concentration (IC50) came out at 224 nM.

Turning to `Cc1nnsc1C(=O)Nc1ccc(-n2nc(C3CC3)c(Cl)c2C2CC2)c(F)c1` [Example 37, N-[4-(4-chloro-3,5-dicyclopropyl-1H-pyrazol-1-yl)-3-fluorophenyl]-4-methyl-1,2,3-thiadiazole-5-carboxamide], the IC50 came to 181 nM.

As for `Cc1ncsc1C(=O)Nc1ccc(-n2nc(C3CC3)cc2C2CC2)nc1` [Example 39, N-[6-(3,5-dicyclopropyl-1H-pyrazol-1-yl)pyridin-3-yl]-4-methylthiazole-5-carboxamide hydrochloride], the IC50 turned out to be 851 nM.

In the case of `O=C(Nc1ccc(-n2nc(C3CC3)cc2C2CC2)nc1)c1c(F)cccc1F` [Example 45, N-[6-(3,5-dicyclopropyl-1H-pyrazol-1-yl)pyridin-3-yl]-2,6-difluorobenzamide hydrochloride], the concentration for half-maximal inhibition (IC50) amounted to 436 nM.

Regarding `Cc1nnsc1C(=O)Nc1ccc(-n2nc(C(F)(F)F)cc2C2CC2)cc1` [Example 52, N-{4-[5-cyclopropyl-3-(trifluoromethyl)-1H-pyrazol-1-yl]phenyl}-4-methyl-1,2,3-thiadiazole-5-carboxamide], the IC50 is 184 nM.

As for `Cc1ncsc1C(=O)Nc1ccc(-n2nc(C(F)(F)F)cc2C2CC2)cc1` [Example 53, N-{4-[5-cyclopropyl-3-(trifluoromethyl)-1H-pyrazol-1-yl]phenyl}-4-methylthiazole-5-carboxamide], the IC50 is 72 nM.

For the compound `Cc1oncc1C(=O)Nc1ccc(-n2nc(C(F)(F)F)cc2C2CC2)cc1` [Example 56, N-{4-[5-cyclopropyl-3-(trifluoromethyl)-1H-pyrazol-1-yl]phenyl}-5-methylisoxazole-4-carboxamide], the half-inhibitory concentration (IC50) was 63.2 nM.

Take `Cc1noc(C)c1C(=O)Nc1ccc(-n2nc(C(F)(F)F)cc2C2CC2)cc1` [Example 57, N-{4-[5-cyclopropyl-3-(trifluoromethyl)-1H-pyrazol-1-yl]phenyl}-3,5-dimethylisoxazole-4-carboxamide]: the IC50 came to 124 nM.

For `Cc1ccccc1C(=O)Nc1ccc(-n2nc(C(F)(F)F)cc2C2CC2)cc1` [Example 60, N-{4-[5-cyclopropyl-3-(trifluoromethyl)-1H-pyrazol-1-yl]phenyl}-2-methylbenzamide], the IC50 is 120 nM.

With `O=C(Nc1ccc(-n2nc(C(F)(F)F)cc2C2CC2)cc1)c1ccncc1F` [Example 67, N-{4-[5-cyclopropyl-3-(trifluoromethyl)-1H-pyrazol-1-yl]phenyl}-3-fluoroisonicotinamide], the 50% inhibitory concentration (IC50) was determined as 20.4 nM.

With `Cc1ncsc1CNc1ccc(-n2nc(C(F)(F)F)cc2C2CC2)cc1` [Example 74, 4-[5-cyclopropyl-3-(trifluoromethyl)-1H-pyrazol-1-yl]-N-[(4-methylthiazol-5-yl)methyl]aniline], the concentration for half-maximal inhibition (IC50) stood at 48 nM.

Regarding `Cc1ncsc1NC(=O)c1ccc(-n2nc(C(F)(F)F)cc2C2CC2)cc1` [Example 78, 4-[5-cyclopropyl-3-(trifluoromethyl)-1H-pyrazol-1-yl]-N-(4-methylthiazol-5-yl)benzamide], the IC50 was 34.1 nM.

For `O=C(Nc1c(F)cccc1F)c1ccc(-n2nc(C(F)(F)F)cc2C2CC2)cc1` [Example 79, 4-[5-cyclopropyl-3-(trifluoromethyl)-1H-pyrazol-1-yl]-N-(2,6-difluorophenyl)benzamide], the half-maximal inhibitory concentration (IC50) was found to be 124 nM.

With `Cc1ncsc1C(=O)Nc1ccc(-n2nc(C(F)(F)F)c(Cl)c2C2CC2)cc1` [Example 80, N-{4-[4-chloro-5-cyclopropyl-3-(trifluoromethyl)-1H-pyrazol-1-yl]phenyl}-4-methylthiazole-5-carboxamide], the IC50 is 194 nM.

For `Cc1nnsc1C(=O)Nc1ccc(-n2nc(C(F)(F)F)cc2C2CC2)c(F)c1` [Example 82, N-{4-[5-cyclopropyl-3-(trifluoromethyl)-1H-pyrazol-1-yl]-3-fluorophenyl}-4-methyl-1,2,3-thiadiazole-5-carboxamide], the IC50 was 35.7 nM.

Regarding `Cc1ncsc1C(=O)Nc1ccc(-n2nc(C(F)(F)F)cc2C2CC2)c(F)c1` [Example 83, N-{4-[5-cyclopropyl-3-(trifluoromethyl)-1H-pyrazol-1-yl]-3-fluorophenyl}-4-methylthiazole-5-carboxamide], the IC50 amounted to 48.2 nM.
